From patent publication US8859558B2, “Pyrazinyl carboxamides as fungicides” (Dow AgroSciences, LLC., priority 2010, dated 2014)

Key:
[1] = test system: Cochliobolus sativus (COCHSA); experiment: Fungicidal activity, spot blotch of barley (COCHSA), greenhouse barley plants; format: in vivo; conditions: One-Day Protectant, barley (variety Harrington)
Protocol: Spot Blotch of Barley (Cochliobolus sativus: anamorph Helmithosporium sativum; Bayer code COCHSA): Barley plants (variety Harrington) were grown from seed in a greenhouse in soil-less Metro mix until the first leaf was fully emerged, with 7-10 seedlings per pot. These plants were inoculated with an aqueous spore suspension of COCHSA prior to fungicide treatments. After inoculation the plants were kept in 100% relative humidity one day to permit spores to germinate and infect the leaf. The plants were then transferred to a greenhouse for disease to develop. The following table presents the activity of typical compounds of the present disclosure when evaluated in these experiments. The effectiveness of the test compounds in controlling disease was determined by assessing the severity of disease on treated plants, then converting the severity to percent control based on the level of disease on untreated, inoculated plants. • In each case of Table II the rating scale is as follows: […]

[2] = test system: Mycosphaerella graminicola; anamorph: Septoria tritici (SEPTTR); experiment: Fungicidal activity, leaf blotch of wheat (SEPTTR), greenhouse wheat plants; format: in vivo; conditions: wheat (variety Yuma)
Protocol: Leaf Blotch of Wheat (Mycosphaerella graminicola; anamorph: Septoria tritici; Bayer code […]): Wheat plants (variety Yuma) were grown from seed in a greenhouse in 50% mineral soil/50% soil-less Metro mix until the first leaf was fully emerged, with 7-10 seedlings per pot. These plants were inoculated with an aqueous spore suspension of […] either prior to or after fungicide treatments. After inoculation the plants were kept in 100% relative humidity (one day in a dark dew chamber followed by two to three days in a lighted dew chamber) to permit spores to germinate and infect the leaf. The plants were then transferred to a greenhouse for disease to develop. The following table presents the activity of typical compounds of the present disclosure when evaluated in these experiments. The effectiveness of the test compounds in controlling disease was determined by assessing the severity of disease on treated plants, then converting the severity to percent control based on the level of disease on untreated, inoculated plants. • In each case of Table II the rating scale is as follows: […]

[3] = test system: Puccinia recondita f. sp. tritici (PUCCRT); experiment: Fungicidal activity, wheat leaf rust (PUCCRT), greenhouse wheat plants; format: in vivo; conditions: One-Day Protectant, wheat (variety Yuma)

- melting point: 173 to 177 °C
Compound: CC(C)C1C2CCC1c1c(NC(=O)c3nccnc3C(F)(F)F)cccc12 (centres unmarked) [Compound 9, 3-Trifluoromethyl-pyrazine-2-carboxylic acid (9-isopropyl-1,2,3,4-tetrahydro-1,4-methano-naphthalen-5-yl)-amide]
- COCHSA 200 PPM 1DP (disease control rating) [1]: A (76-100)
- SEPTTR 200 PPM 1DP (disease control rating) ([2]; One-Day Protectant): A (76-100)
- SEPTTR 200 PPM 3DC (disease control rating) ([2]; Three-Day Curative): B (51-75)
- PUCCRT 200 PPM 1DP (disease control rating) [3]: A (76-100)
